Activity calls are given as the source filed them. The rule behind the calls is not given here.
What was measured:
[1] = Chronic toxicity in rat assessed as change in alkaline phosphatase level at 18.75 to 22.5 mg/kg, iv administered as pluronic F127 formulation at 4 intervals for 21 days and observed 3 weeks post last injection; format: organism-based; conditions: in vivo, 2544 h, dose 18.75-22.5 mg/kg, time 106 day
[2] = test system: PC-3; test: Effect on cell stiffness in human PC-3 cells assessed as increase in young's modulus at 2.8 nM measured after 1 hr by topography based scanning ion-conductance microscopic analysis; format: functional
[3] = test system: PC-3; test: Induction of ROS generation in human PC-3 cells at 800 mV holding potential measured after 1 hr by patch clamp amplifier based optical inverted microscopic analysis; format: functional, cell-based
[4] = Ratio of AUC (t to infinity) to AUC (0 to infinity) in Soviet Chinchilla rabbit at 8.1 mg/kg, iv administered as pluronic F127 formulation measured upto 72 hrs by high-performance liquid chromatography tandem mass spectrometric analysis; format: ADME, organism-based, Oryctolagus cuniculus; conditions: in vivo
[5] = Acute toxicity in ICR mouse assessed as kidney lesion at 183 to 960 mg/kg, iv administered as pluronic F127 formulation and measured for 14 days; format: organism-based; conditions: in vivo, 336 h, dose 183-960 mg/kg, time 14 day
[6] = Chronic toxicity in rat assessed as change in volume of excreted urine at 15 mg/kg, iv administered as pluronic F127 formulation at 4 intervals for 21 days and observed 3 weeks post last injection; format: organism-based; conditions: in vivo, 2544 h, time 106 day

CC(=O)O[C@@]12CO[C@@H]1C[C@H](O)[C@@]1(C)C(=O)[C@H](O)C3=C(C)[C@@H](OC(=O)[C@H](OC(=O)CCCc4cn(CCCNC(=O)[C@H](Cc5ccc(O)cc5)NC(=O)[C@H](Cc5ccccc5)NC(=O)CCC(=O)NCCCCCC(=O)N(CCCC[C@H](NC(=O)N[C@@H](CCC(=O)O)C(=O)O)C(=O)O)Cc5cccc(Cl)c5)nn4)[C@@H](NC(=O)OC(C)(C)C)c4ccccc4)C[C@@](O)([C@@H](OC(=O)c4ccccc4)[C@H]21)C3(C)C
Activity [1]: Non-Toxic
Activity [2]: Active
Activity [3]: Active
Ratio AUC [4]: 12%
Activity [5]: Toxic
Activity [6]: Non-Toxic

Reference: ChEMBL document CHEMBL5131389, “PSMA-targeted small-molecule docetaxel conjugate: Synthesis and preclinical evaluation” (Eur J Med Chem, 2022)
